Assay results from ChEMBL document CHEMBL1133356, “Examination of novel non-phosphorus-containing phosphotyrosyl mimetics against protein-tyrosine phosphatase-1B and demonstration of differential affinities toward Grb2 SH2 domains” (Bioorg Med Chem Lett, 2000).
Peptide text beside a SMILES is read from it. * marks the point of attachment. Carboxymethyl = O=C(O)C*

How the values were obtained:
[1] = target: T1, Growth factor receptor-bound protein 2 (Homo sapiens, UniProt P62993); experiment: Inhibition of Growth factor receptor bound protein 2 SH2 domain binding in plasmon resonance assay
T1 sequence (P62993 whole entry, the tested form may be a part): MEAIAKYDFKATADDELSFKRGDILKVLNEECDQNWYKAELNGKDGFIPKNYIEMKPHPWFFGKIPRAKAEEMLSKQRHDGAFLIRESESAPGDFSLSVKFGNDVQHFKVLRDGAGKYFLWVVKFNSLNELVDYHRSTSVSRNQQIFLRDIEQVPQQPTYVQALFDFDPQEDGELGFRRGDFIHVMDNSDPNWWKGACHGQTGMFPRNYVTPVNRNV

[2] = target: T1, Growth factor receptor-bound protein 2; experiment: Inhibition of Growth factor receptor bound protein 2 SH2 domain binding in ELISA
[3] = target: T2, Tyrosine-protein phosphatase non-receptor type 1 (Homo sapiens, UniProt P18031); experiment: Tested for binding affinity towards Protein-tyrosine Phosphatase 1B; parameters: species or system Rattus norvegicus
T2 sequence (P18031 whole entry): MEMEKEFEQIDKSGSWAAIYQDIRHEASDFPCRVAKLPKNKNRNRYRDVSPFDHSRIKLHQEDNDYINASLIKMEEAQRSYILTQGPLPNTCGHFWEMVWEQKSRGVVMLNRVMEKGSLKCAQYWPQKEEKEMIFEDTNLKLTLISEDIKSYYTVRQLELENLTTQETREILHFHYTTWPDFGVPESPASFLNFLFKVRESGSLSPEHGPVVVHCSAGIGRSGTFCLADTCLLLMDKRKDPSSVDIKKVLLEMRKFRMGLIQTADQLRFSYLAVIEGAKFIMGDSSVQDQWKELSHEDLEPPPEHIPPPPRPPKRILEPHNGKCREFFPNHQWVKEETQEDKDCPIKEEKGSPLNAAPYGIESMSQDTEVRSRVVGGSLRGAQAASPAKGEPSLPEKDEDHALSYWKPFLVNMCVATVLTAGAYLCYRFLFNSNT

SMILES | IC50 [3] [µM] | also measured
NC(=O)C[C@H](NC(=O)C1(NC(=O)[C@H](Cc2ccc(C(F)(F)C(=O)O)cc2)NC(=O)C(=O)O)CCCCC1)C(=O)NCCCc1cccc2ccccc12 | – | IC50 [1]: 2 µM
NC(=O)C[C@H](NC(=O)C1(NC(=O)[C@H](Cc2ccc(OCC(=O)O)cc2)NC(=O)C(=O)O)CCCCC1)C(=O)NCCCc1cccc2ccccc12 | – | IC50 [1]: 15 µM
NC(=O)C[C@H](NC(=O)C1(NC(=O)[C@H](Cc2ccc(CC(=O)O)cc2)NC(=O)C(=O)O)CCCCC1)C(=O)NCCCc1cccc2ccccc12 | – | IC50 [1]: 0.6 µM
NC(=O)C[C@H](NC(=O)C1(NC(=O)[C@H](Cc2ccc(OCC(=O)O)c(OCC(=O)O)c2)NC(=O)C(=O)O)CCCCC1)C(=O)NCCCc1cccc2ccccc12 | – | IC50 [1]: > 100 µM
NC(=O)C[C@H](NC(=O)C1(NC(=O)[C@H](Cc2ccc(O)c(C(=O)O)c2)NC(=O)C(=O)O)CCCCC1)C(=O)NCCCc1cccc2ccccc12 | – | IC50 [2]: > 100 µM
NC(=O)C[C@H](NC(=O)C1(NC(=O)[C@H](Cc2ccc(C(=O)O)c(O)c2)NC(=O)C(=O)O)CCCCC1)C(=O)NCCCc1cccc2ccccc12 | – | IC50 [2]: 50 µM
CC(=O)N[C@@H](CC(=O)O)C(=O)N[C@@H](C)C(=O)N[C@@H](CC(=O)O)C(=O)N[C@@H](CCC(=O)O)C(=O)N[C@@H](Cc1ccc(OCC(=O)O)cc1)C(=O)N[C@@H](CC(C)C)C(N)=O (Ac-DADEY(Carboxymethyl)L-NH2) | 1200 | –
CC(=O)N[C@@H](CC(=O)O)C(=O)N[C@@H](C)C(=O)N[C@@H](CC(=O)O)C(=O)N[C@@H](CCC(=O)O)C(=O)N[C@@H](Cc1ccc(C(C(=O)O)C(=O)O)cc1)C(=O)N[C@@H](CC(C)C)C(N)=O (HELM PEPTIDE1{[ac].D.A.D.E.[O=C(O)C(C(=O)O)c1ccc(C[C@H](N[*:1])C(=O)[*:2])cc1].L.[am]}$$$$V2.0) | 1500 | –
CC(=O)N[C@@H](CC(=O)O)C(=O)N[C@@H](C)C(=O)N[C@@H](CC(=O)O)C(=O)N[C@@H](CCC(=O)O)C(=O)N[C@@H](Cc1ccc(C(F)(C(=O)O)C(=O)O)cc1)C(=O)N[C@@H](CC(C)C)C(N)=O (HELM PEPTIDE1{[ac].D.A.D.E.[O=C(O)C(F)(C(=O)O)c1ccc(C[C@H](N[*:1])C(=O)[*:2])cc1].L.[am]}$$$$V2.0) | 430 | –
CC(=O)N[C@@H](CC(=O)O)C(=O)N[C@@H](C)C(=O)N[C@@H](CC(=O)O)C(=O)N[C@@H](CCC(=O)O)C(=O)N[C@@H](Cc1ccc(C(F)(F)C(=O)O)cc1)C(=O)N[C@@H](CC(C)C)C(N)=O (HELM PEPTIDE1{[ac].D.A.D.E.[O=C(O)C(F)(F)c1ccc(C[C@H](N[*:1])C(=O)[*:2])cc1].L.[am]}$$$$V2.0) | 650 | –
CC(=O)N[C@@H](CC(=O)O)C(=O)N[C@@H](C)C(=O)N[C@@H](CC(=O)O)C(=O)N[C@@H](CCC(=O)O)C(=O)N[C@@H](Cc1ccc(OCC(=O)O)c(C(=O)O)c1)C(=O)N[C@@H](CC(C)C)C(N)=O (HELM PEPTIDE1{[ac].D.A.D.E.[O=C(O)COc1ccc(C[C@H](N[*:1])C(=O)[*:2])cc1C(=O)O].L.[am]}$$$$V2.0) | 19 | –
CC(=O)N[C@@H](CC(=O)O)C(=O)N[C@@H](C)C(=O)N[C@@H](CC(=O)O)C(=O)N[C@@H](CCC(=O)O)C(=O)N[C@@H](Cc1ccc(OCC(=O)O)c(OCC(=O)O)c1)C(=O)N[C@@H](CC(C)C)C(N)=O (HELM PEPTIDE1{[ac].D.A.D.E.[O=C(O)COc1ccc(C[C@H](N[*:1])C(=O)[*:2])cc1OCC(=O)O].L.[am]}$$$$V2.0) | 800 | –
CC(=O)N[C@@H](CC(=O)O)C(=O)N[C@@H](C)C(=O)N[C@@H](CC(=O)O)C(=O)N[C@@H](CCC(=O)O)C(=O)N[C@@H](Cc1ccc(CC(=O)O)c(C(=O)O)c1)C(=O)N[C@@H](CC(C)C)C(N)=O (HELM PEPTIDE1{[ac].D.A.D.E.[O=C(O)Cc1ccc(C[C@H](N[*:1])C(=O)[*:2])cc1C(=O)O].L.[am]}$$$$V2.0) | 3700 | –
CC(=O)N[C@@H](CC(=O)O)C(=O)N[C@@H](C)C(=O)N[C@@H](CC(=O)O)C(=O)N[C@@H](CCC(=O)O)C(=O)N[C@@H](Cc1ccc(CC(=O)O)c(O)c1)C(=O)N[C@@H](CC(C)C)C(N)=O (HELM PEPTIDE1{[ac].D.A.D.E.[O=C(O)Cc1ccc(C[C@H](N[*:1])C(=O)[*:2])cc1O].L.[am]}$$$$V2.0) | 13000 | –
CC(=O)N[C@@H](CC(=O)O)C(=O)N[C@@H](C)C(=O)N[C@@H](CC(=O)O)C(=O)N[C@@H](CCC(=O)O)C(=O)N[C@@H](Cc1ccc(CC(=O)O)cc1)C(=O)N[C@@H](CC(C)C)C(N)=O (HELM PEPTIDE1{[ac].D.A.D.E.[O=C(O)Cc1ccc(C[C@H](N[*:1])C(=O)[*:2])cc1].L.[am]}$$$$V2.0) | 2500 | –
CC(=O)N[C@@H](CC(=O)O)C(=O)N[C@@H](C)C(=O)N[C@@H](CC(=O)O)C(=O)N[C@@H](CCC(=O)O)C(=O)N[C@@H](Cc1ccc(O)c(C(=O)O)c1)C(=O)N[C@@H](CC(C)C)C(N)=O (HELM PEPTIDE1{[ac].D.A.D.E.[O=C(O)c1cc(C[C@H](N[*:1])C(=O)[*:2])ccc1O].L.[am]}$$$$V2.0) | 4600 | –
CC(=O)N[C@@H](CC(=O)O)C(=O)N[C@@H](C)C(=O)N[C@@H](CC(=O)O)C(=O)N[C@@H](CCC(=O)O)C(=O)N[C@@H](Cc1ccc(C(=O)O)c(O)c1)C(=O)N[C@@H](CC(C)C)C(N)=O (HELM PEPTIDE1{[ac].D.A.D.E.[O=C(O)c1ccc(C[C@H](N[*:1])C(=O)[*:2])cc1O].L.[am]}$$$$V2.0) | 5300 | –
CC(=O)N[C@@H](CC(=O)O)C(=O)N[C@@H](C)C(=O)N[C@@H](CC(=O)O)C(=O)N[C@@H](CCC(=O)O)C(=O)N[C@@H](Cc1ccc(C(=O)O)cc1)C(=O)N[C@@H](CC(C)C)C(N)=O (HELM PEPTIDE1{[ac].D.A.D.E.[O=C(O)c1ccc(C[C@H](N[*:1])C(=O)[*:2])cc1].L.[am]}$$$$V2.0) | 4400 | –
CC(=O)N[C@@H](CC(=O)O)C(=O)N[C@@H](C)C(=O)N[C@@H](CC(=O)O)C(=O)N[C@@H](CCC(=O)O)C(=O)N[C@@H](Cc1ccc(OP(=O)(O)O)cc1)C(=O)N[C@@H](CC(C)C)C(N)=O (HELM PEPTIDE1{[ac].D.A.D.E.[O=C([C@H](Cc1ccc(OP(=O)(O)O)cc1)N[*:1])[*:2]].L.[am]}$$$$V2.0) | 3.2 | –
